Like-named read-outs stand apart in the source and are kept apart here.
System: A. galli (intestinal roundworm of chicken) larval stage 3; O. dentatum (nodular worm of swine) larval stages 3 and 4
Test: Activity against Ascaridia galli and Oesophagostomum dentatum larvae in vitro (minimum effective concentration)
Type: cell-based
[1] = read-out: MEC (minimum effective concentration) against one or more of the tested nematodes, in vitro, one or more of A. galli L3, O. dentatum L3, L4, threshold 1 μM
[2] = read-out: MEC (minimum effective concentration) against one or more of the tested nematodes, in vitro, one or more of A. galli L3, O. dentatum L3, L4, threshold 7 μM
[3] = read-out: MEC (minimum effective concentration) against two or more of the tested nematodes, in vitro, two or more of A. galli L3, O. dentatum L3, L4, threshold 1 μM
[4] = in vitro, one or more of A. galli L3, O. dentatum L3, L4, threshold 1 μM, read-out: MEC (minimum effective concentration) against one or more of the tested nematodes
[5] = in vitro, one or more of A. galli L3, O. dentatum L3, L4, threshold 7 μM, read-out: MEC (minimum effective concentration) against one or more of the tested nematodes
[6] = in vitro, two or more of A. galli L3, O. dentatum L3, L4, threshold 1 μM, read-out: MEC (minimum effective concentration) against two or more of the tested nematodes

Compound	minimal effective concentration [1] [µM]	minimal effective concentration [2] [µM]	minimal effective concentration [3] [µM]	minimal effective concentration [4] [µM]	minimal effective concentration [5] [µM]	minimal effective concentration [6] [µM]
O=C(CC(=O)N1CCN(c2ccc(C(F)(F)F)cc2)CC1)N1CCC(Nc2ccc([N+](=O)[O-])c(C(F)(F)F)c2)CC1 [Example 78, 1-[4-(4-nitro-3-trifluoromethyl-phenylamino)-piperidin-1-yl]-3-[4-(4-trifluoromethyl-phenyl)-piperazin-1-yl]-propane-1,3-dione]	< 1	< 7	< 1			
O=C(CCCN1CCN(c2ccc(C(F)(F)F)cc2)CC1)N1CCC(Oc2ccc([N+](=O)[O-])c(C(F)(F)F)c2)CC1 [Example 79, 1-[4-(4-nitro-3-trifluoromethyl-phenoxy)-piperidin-1-yl]-4-[4-(4-trifluoromethyl-phenyl)-piperazin-1-yl]-butan-1-one]	< 1	< 7	< 1			
O=C(CCCN1CCN(c2ccc(C(F)(F)F)cc2)CC1)N1CCC(Nc2cccc(C(F)(F)F)c2)CC1 [Example 81, 1-[4-(3-trifluoromethyl-phenylamino)-piperidin-1-yl]-4-[4-(4-trifluoromethyl-phenyl)-piperazin-1-yl]-butan-1-one]	< 1	< 7	< 1			
N#Cc1ccc(NC2CCN(C(=O)CCCN3CCN(c4ccc(C(F)(F)F)cc4)CC3)CC2)cc1 [Example 83, 4-(1-{4-[4-(4-trifluoromethyl-phenyl)-piperazin-1-yl]-butyryl}-piperidin-4-ylamino)-benzonitrile]	< 1	< 7	< 1			
O=C(CCCN1CCN(c2ccc(C(F)(F)F)cc2)CC1)N1CCC(Nc2ccc([N+](=O)[O-])nc2)CC1 [Example 95, 1-[4-(6-nitro-pyridin-3-ylamino)-piperidin-1-yl]-4-[4-(4-trifluoromethyl-phenyl)-piperazin-1-yl]-butan-1-one]	< 1	< 7	< 1			
O=C(CCCN1CCN(c2ccc(C(F)(F)F)cc2)CC1)N1CCC(Nc2ccc([N+](=O)[O-])cn2)CC1 [Example 98, 1-[4-(5-nitro-pyridin-2-ylamino)-piperidin-1-yl]-4-[4-(4-trifluoromethyl-phenyl)-piperazin-1-yl]-butan-1-one]	< 1	< 7	< 1			
Cc1nc(NC2CCN(C(=O)CCCN3CCN(c4ccc(C(F)(F)F)cc4)CC3)CC2)ccc1[N+](=O)[O-] [Example 101, 1-[4-(6-methyl-5-nitro-pyridin-2-ylamino)-piperidin-1-yl]-4-[4-(4-trifluoromethyl-phenyl)-piperazin-1-yl]-butan-1-one]	< 1	< 7	< 1			
N#Cc1ccc(NC2CCN(C(=O)CCCN3CCN(c4ccc(C(F)(F)F)cc4)CC3)CC2)cc1Cl [Example 105, 2-chloro-4-(1-{4-[4-(4-trifluoromethyl-phenyl)-piperazin-1-yl]-butyryl}-piperidin-4-ylamino)-benzonitrile]	< 1	< 7	< 1			
CC(C)(C)c1ccc(N2CC3CN(CCC(=O)N4CCC(Nc5ccc([N+](=O)[O-])c(C(F)(F)F)c5)CC4)CC3C2)cc1 (stereo not shown) [Example 128, 3-[5-(4-tert-butyl-phenyl)-hexahydro-pyrrolo[3,4-c]pyrrol-2-yl]-1-[4-(4-nitro-3-trifluoromethyl-phenylamino)-piperidin-1-yl]-propan-1-one]	< 1	< 7	< 1			
CC(CN1CCN(c2ccc(C(C)(C)C)cc2)CC1)C(=O)N1CCC(Nc2ccc([N+](=O)[O-])c(C(F)(F)F)c2)CC1 (stereo not shown) [Example 130, 3-[4-(4-tert-butyl-phenyl)-piperazin-1-yl]-2-methyl-1-[4-(4-nitro-3-trifluoromethyl-phenylamino)-piperidin-1-yl]-propan-1-one]	< 1	< 7	< 1			
CC(C)(C)c1ccc(N2CCC(CCCC(=O)N3CCC(Nc4ccc([N+](=O)[O-])c(C(F)(F)F)c4)CC3)CC2)cc1 [Example 137, 4-[1-(4-tert-butyl-phenyl)-piperidin-4-yl]-1-[4-(4-nitro-3-trifluoromethyl-phenylamino)-piperidin-1-yl]-butan-1-one]	< 1	< 7	< 1			
O=C(CCC1CCN(c2ccc(C(F)(F)F)cc2)CC1)N1CCC(Nc2ccc([N+](=O)[O-])c(C(F)(F)F)c2)CC1 [Example 141, 1-[4-(4-nitro-3-trifluoromethyl-phenylamino)-piperidin-1-yl]-3-[1-(4-trifluoromethyl-phenyl)-piperidin-4-yl]-propan-1-one]	< 1	< 7	< 1			
O=C(CCC1CCN(c2ccc(Cl)cc2)CC1)N1CCC(Nc2ccc([N+](=O)[O-])c(C(F)(F)F)c2)CC1 [Example 144, 3-[1-(4-chloro-phenyl)-piperidin-4-yl]-1-[4-(4-nitro-3-trifluoromethyl-phenylamino)-piperidin-1-yl]-propan-1-one]	< 1	< 7	< 1			
CC(C)(C)c1ccc(N2CCC(CCC(=O)N3CCC(Nc4ccc([N+](=O)[O-])c(C(F)(F)F)c4)CC3)CC2)cc1 [Example 147, 3-[1-(4-tert-butyl-phenyl)-piperidin-4-yl]-1-[4-(4-nitro-3-trifluoromethyl-phenylamino)-piperidin-1-yl]-propan-1-one]	< 1	< 7	< 1			
O=C(CCCN1CCN(c2ccc(C(F)(F)F)nc2)CC1)N1CCC(Nc2ccc([N+](=O)[O-])c(C(F)(F)F)c2)CC1 [Example 149, 1-[4-(4-nitro-3-trifluoromethyl-phenylamino)-piperidin-1-yl]-4-[4-(6-trifluoromethyl-pyridin-3-yl)-piperazin-1-yl]-butan-1-one]	< 1	< 7	< 1			
O=C(CCCN1CCN(c2nnc(C(F)(F)F)s2)CC1)N1CCC(Nc2ccc([N+](=O)[O-])c(C(F)(F)F)c2)CC1 [Example 153, 1-[4-(4-nitro-3-trifluoromethyl-phenylamino)-piperidin-1-yl]-4-[4-(5-trifluoromethyl-1,3,4-thiadiazol-2-yl)-piperazin-1-yl]-butan-1-one]	< 1	< 7	< 1			
N#Cc1ccc(NC2CCN(C(=O)CCCC3CCN(c4ccc(C(F)(F)F)cc4)CC3)CC2)cc1C(F)(F)F [Example 156, 2-trifluoromethyl-4-(1-{4-[1-(4-trifluoromethyl-phenyl)-piperidin-4-yl]-butyryl}-piperidin-4-ylamino)-benzonitrile]				< 1	< 7	< 1
CC(C)(C)c1ccc(N2CCCN(CCCC(=O)N3CCC(Nc4ccc([N+](=O)[O-])c(C(F)(F)F)c4)CC3)CC2)cc1 [Example 163, 4-[4-(4-tert-butyl-phenyl)-[1,4]diazepan-1-yl]-1-[4-(4-nitro-3-trifluoromethyl-phenylamino)-piperidin-1-yl]-butan-1-one]	< 1	< 7	< 1			
CC(C)(C)c1ccc(N2CCN(CCCC(=O)N3CC[C@@H](Nc4ccc([N+](=O)[O-])c(C(F)(F)F)c4)C3)CC2)cc1 [Example 168, 4-[4-(4-tert-butyl-phenyl)-piperazin-1-yl]-1-[(R)-3-(4-nitro-3-trifluoromethyl-phenylamino)-pyrrolidin-1-yl]-butan-1-one]	< 1	< 7	< 1			
O=C(CCN1CCN(c2ccccc2)CC1)N1CCC(Nc2ccc([N+](=O)[O-])c(C(F)(F)F)c2)CC1 [Example 169]					< 7	
O=C(CCN1CCN(c2ccccc2)CC1)N1CCC(Nc2ccc([N+](=O)[O-])c(C(F)(F)F)c2)CC1 [Example 171]				< 1		< 1
O=C(COC1CCN(c2ccc([N+](=O)[O-])c(C(F)(F)F)c2)CC1)N1CCN(c2ccc(Cl)cc2)CC1 [Example 179]				< 1		
N#Cc1ccc(N2CCN(C(=O)COC3CCN(c4ccc([N+](=O)[O-])c(C(F)(F)F)c4)CC3)CC2)cc1 [Example 180]				< 1		
O=C(CCN1CCN(c2cccc(C(F)(F)F)c2)CC1)N1CCC(Nc2ccc([N+](=O)[O-])c(C(F)(F)F)c2)CC1 [Example 183]						< 1
O=C(CCN1CCN(c2cccc(OC(F)(F)F)c2)CC1)N1CCC(Nc2ccc([N+](=O)[O-])c(C(F)(F)F)c2)CC1 [Example 191]						< 1
O=C(CCN1CCC(Nc2ccc([N+](=O)[O-])c(C(F)(F)F)c2)CC1)N1CCN(c2ccc(Cl)cc2)CC1 [Example 199]				< 1		
N#Cc1ccc(N2CCN(C(=O)CCN3CCC(Nc4ccc([N+](=O)[O-])c(C(F)(F)F)c4)CC3)CC2)cc1 [Example 200]				< 1		
O=C(CC(=O)N1CCN(c2ccc(Cl)c(C(F)(F)F)c2)CC1)N1CCC(Nc2ccc([N+](=O)[O-])c(C(F)(F)F)c2)CC1 [Example 202]						< 1

Source: patent US9096524B2, “Anthelmintic agents and their use” (Intervet International B.V., priority 2009, dated 2015)
